Converted amounts (≈) assume the structure as drawn.
What was measured:
golden hamsters = experiment: Dose effect on free choice ethanol intake in golden hamsters, i.p.; type: in vivo, golden hamster; conditions: i.p.
Text: It is common practice in quantitative drug studies with rodents to use intraperitoneal (i.p.) administration to deliver drug doses accurately (Goodman and Gilman, 1975, The Pharmacological Basis of Therapeutics, 5th ed., Macmillan, N.Y., p. 8). In particular, this method avoids variability introduced by technical difficulties of oral administration via feeding (full versus empty stomach, etc.), variations in drug transport in the gastrointestinal tract (variations in intestinal fauna and flora, individual variations in absorption rate expected of outbred animals, etc.) and other factors. […] As a control 1 ml of sterile saline was injected i.p. daily during the baseline period (typically 7-9 days) that establishes drinking preference without the drug. Saline injection i.p. had no effect on the drinking behavior of golden hamsters. Ethanol was provided as a 20% solution. Hamsters could be used more than once (but were not used more than three times) in a cycle of baseline saline injections followed by drug injections, each cycle with the drug at a different dose.
The response to daidzin treatment was computed as:
% Response=(Vo -Vd)×100/Vo

[1] = Plasma drug concentration versus time after a single 10 mg dose; type: in vivo; conditions: golden hamster
Text: Five hours later the plasma concentrations of both inhibitors were still above […], far above their competitive inhibition constants for ALDH-I.

ADH isozymes = experiment: Inhibition of ADH; type: biochemical, human
[2] = high doses; cited from earlier work
ALDH-II [3] = molecular target: T1, ALDH-II (Homo sapiens, UniProt P00352); experiment: Inhibition kinetics of ALDH-II, initial velocity method, formaldehyde as substrate
T1 sequence (P00352 1-501): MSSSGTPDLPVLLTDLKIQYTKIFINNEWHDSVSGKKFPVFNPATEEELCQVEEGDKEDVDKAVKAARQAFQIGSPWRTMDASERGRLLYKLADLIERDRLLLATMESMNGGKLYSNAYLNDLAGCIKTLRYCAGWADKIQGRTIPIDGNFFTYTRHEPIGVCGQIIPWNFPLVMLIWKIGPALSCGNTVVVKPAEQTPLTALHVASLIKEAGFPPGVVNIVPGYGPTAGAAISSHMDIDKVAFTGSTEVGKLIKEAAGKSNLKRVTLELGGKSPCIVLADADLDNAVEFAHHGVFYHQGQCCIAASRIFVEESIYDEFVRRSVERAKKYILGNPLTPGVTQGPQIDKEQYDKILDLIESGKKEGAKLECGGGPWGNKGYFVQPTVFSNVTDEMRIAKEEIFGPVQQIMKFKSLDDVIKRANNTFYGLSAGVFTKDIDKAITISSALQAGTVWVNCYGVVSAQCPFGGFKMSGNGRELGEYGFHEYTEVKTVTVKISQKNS
Procedure: The inhibition kinetics were studied by the initial velocity method (Dixon and Webb, 1979, Enzymes, 3rd ed., Longman, Great Britain). […] The initial reaction rates were measured in a pH 9.5 assay medium 0.1 11 in glycine-NaOH, 0. […] The enzyme reaction rates were followed by monitoring the production of NADH at 340 nm (ε-6.22 mM^-1 cm^-1) with a Varian Cary 219 spectrophotometer thermostated at 25° C. The kinetic data were analyzed by standard graphical methods.

ALDH-II [4] = molecular target: T1, ALDH-II; experiment: ALDH-II inhibition by structurally related compounds, acetaldehyde as substrate; type: biochemical; set-up: A liver sample (50 g wet weight) with the usual Caucasian ALDH phenotype (both ALDH-I and ALDH-II present); from tissue; host or cells: human liver (autopsy), purified by CM-52, AMP-agarose and DEAE HPLC
Procedure: *ALDH activities were assayed at 25° C. in 0.1 M sodium
pyrophosphate buffer pH 9.5 containins 0.15 M KCl, 1 mM NAD^+, various
concentrations of inhibitors and 5 and 200 μM acetaldehyde for ALDH-I
and ALDH-II, respectively.
For the study of the inhibition of ALDH-I by structurally related compounds to generate the data shown in Tables IV and V, each individual compound was dissolved at different concentrations in methanol and was added to the assay medium as 10 μL aliquots. For controls, 10 […] of methanol was added to the assay medium. In a standard ALDH-I assay, the assay medium contains 0.1 M sodium pyrophosphate pH 9.5, 0.15 M KCl, 1 mM NAD^+, 1% methanol, 5 μM acetaldehyde, 5-10 nM ALDH-I and various concentrations of inhibitor. The enzyme reaction rates were measured by monitoring the production of NADH at 340 nm (ε=6.22 mM^-1 cm^-1) with a Varian Cary 219 spectrophotometer thermostated at 25° C. (Fong et al., 1989, supra). The inhibition of ALDH-I by the inhibitors was calculated as: [formula]
where Vo is the enzyme reaction rate measured in the absence of inhibitor, and where Vi is the enzyme reaction rate measured in the presence of inhibitor. […] IC50 values are related to the underlying Ki values.

ALDH-II [5] = molecular target: T1, ALDH-II; experiment: Competitive inhibition of ALDH-II with acetaldehyde as substrate; type: biochemical; set-up: A liver sample (50 g wet weight) with the usual Caucasian ALDH phenotype (both ALDH-I and ALDH-II present); from tissue; host or cells: human liver (autopsy), purified by CM-52, AMP-agarose and DEAE HPLC

In the case of `O=c1c(-c2ccc(O)cc2)coc2cc(O[C@@H]3O[C@H](CO)[C@@H](O)[C@H](O)[C@H]3O)ccc12` [Daidzin, 7-glucoside of daidzein], the “suppression of alcohol intake at 5 mg/day” value (golden hamsters; 20% ethanol, 5 mg/day) is reported as 20%, the “suppression of alcohol intake at 10 mg/day” value (golden hamsters; 20% ethanol, 10 mg/day) is reported as 50% and the “suppression of alcohol intake at 30 mg/day” value (golden hamsters; 20% ethanol, 30 mg/day) is reported as 80%. The “EC50 or half-maximal response, suppression of alcohol intake” value (golden hamsters; golden hamsters) was 10 mg/day, the “time to maximal plasma concentration after injection” value ([1]; i.p.) was “within about an hour after injection” and the Cmax ([1]; plasma, ip, read-out: maximal plasma concentration) was 6 µM. For the same molecule, the ADH inhibition (ADH isozymes) was “inhibits the second but not the first step in human ethanol metabolism”, the estrogenic activity [2] was “estrogenic activity at high doses” and the solubility (physchem; 10% aqueous polyvinylpyrrolidone 40, organic solvent or mixture) was about 2000 µM (≈ 833 µg/mL). The solubility (physchem; 20% peg 400 in water, organic solvent or mixture) was 4500 µM (≈ 1870 µg/mL), the solubility (physchem; 20% peg/water, beta-cyclodextrin, organic solvent or mixture) was 9400 µM (≈ 3910 µg/mL) and the solubility (physchem; saturated digitonin solution) was about 2000 µM (≈ 833 µg/mL). The solubility (physchem; water) was 200 µM (≈ 83.3 µg/mL), the Ki (ALDH-II [3]) was 20 µM and the IC50 (ALDH-II [4]) was 20 µM. The Ki (ALDH-II [5]) was 28 µM.
